Laboratory results: doi:10.1101/2022.07.21.500659v1 (bioRxiv, 2022)

Experiments:
Assay type in all cases: in vivo, mouse
OVX BALB/c mice [1] = assay: Dynamic bone histomorphometry of tibia in OVX mice; settings: calcein labelling
OVX BALB/c mice [2] = assay: High resolution X-ray microCT of tibia in OVX mice; settings: 8 weeks, vs OVX+vehicle
OVX BALB/c mice [3] = assay: Circulating PTH, CTX-I and P1NP in OVX mice; settings: plasma at necropsy, vs OVX+vehicle
OVX BALB/c mice [4] = assay: Bone strength, 3-point bending of femur in OVX mice; settings: 8 weeks of treatment
OVX BALB/c mice [5] = settings: femur midshaft cortical cross-section, FTIRI, vs vehicle-treated OVX mice

## O=P(O)(O)C(O)(Cn1ccnc1)P(=O)(O)O [zoledronic acid]
OVX BALB/c mice [1]
  Active mineralizing surface: reduction
  Bone formation rate: reduction
OVX BALB/c mice [2]; midshaft tibia
  Increase of cortical thickness: 6%
OVX BALB/c mice [2]; proximal tibia
  Increase of trabeculae numbers: 106%
  Increase of trabecular bone mass: 85%
OVX BALB/c mice [3]
  Change of circulating levels of P1NP: −25%
  Reduction of circulating levels of CTX-I: 24%
OVX BALB/c mice [4]
  Reduced deformation in load-deformation curves of OVX mice: not ameliorated
OVX BALB/c mice [5]
  Enhancement of collagen maturity: None of these effects were observed
  Reduction of the degree of mineralization of the bone ECM: None of these effects were observed
